Measured values taken from ChEMBL document CHEMBL1201862, “PubChem BioAssay data set” (2004).
Activity calls are given as the source filed them.

Assays:
INS1 = test: beta cell apoptosis inhibitors, cytokine rescue, dose response, luminescence, retest (AID 449756); type: functional, cell-based; settings: Rattus norvegicus;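 also: cell death triggered by IL-1 beta plus TNF-alpha plus IFN-gamma mixture; protective hits raise ATP signal compared with cytokine alone wells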
Paired box protein Pax-8 = Paired box protein Pax-8 (Homo sapiens, UniProt Q06710); test: inhibitors of PAX8-driven TPO luciferase reporter, dose response, RMG-I cells, cherry-pick (AID 687027); type: functional, cell-based;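 also: luciferase reporter driven by Pax8 target thyroperoxidase promoter measured by SteadyGlo luminescence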
Paired box protein Pax-8, sequence (Q06710 whole entry): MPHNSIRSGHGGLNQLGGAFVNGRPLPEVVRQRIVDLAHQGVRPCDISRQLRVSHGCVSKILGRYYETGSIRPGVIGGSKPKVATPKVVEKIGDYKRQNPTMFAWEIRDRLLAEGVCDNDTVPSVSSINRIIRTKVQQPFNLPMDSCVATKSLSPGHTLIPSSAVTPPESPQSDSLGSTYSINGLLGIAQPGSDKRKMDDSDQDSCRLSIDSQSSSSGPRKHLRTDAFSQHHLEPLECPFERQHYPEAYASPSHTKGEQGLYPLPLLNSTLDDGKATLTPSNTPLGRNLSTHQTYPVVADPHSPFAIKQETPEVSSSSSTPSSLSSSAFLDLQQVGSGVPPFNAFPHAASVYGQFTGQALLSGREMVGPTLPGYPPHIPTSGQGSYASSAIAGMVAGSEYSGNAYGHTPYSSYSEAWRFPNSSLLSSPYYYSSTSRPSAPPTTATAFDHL

[1] = biological target: T1, Microphthalmia-associated transcription factor (Homo sapiens, UniProt O75030); test: TRPM1 promoter luciferase signal decrease, dose response, MITF inhibitor project, cell-based, SK-MEL-5, cherry-picked, set 3 (AID 493073); type: functional
T1 sequence (O75030 whole entry): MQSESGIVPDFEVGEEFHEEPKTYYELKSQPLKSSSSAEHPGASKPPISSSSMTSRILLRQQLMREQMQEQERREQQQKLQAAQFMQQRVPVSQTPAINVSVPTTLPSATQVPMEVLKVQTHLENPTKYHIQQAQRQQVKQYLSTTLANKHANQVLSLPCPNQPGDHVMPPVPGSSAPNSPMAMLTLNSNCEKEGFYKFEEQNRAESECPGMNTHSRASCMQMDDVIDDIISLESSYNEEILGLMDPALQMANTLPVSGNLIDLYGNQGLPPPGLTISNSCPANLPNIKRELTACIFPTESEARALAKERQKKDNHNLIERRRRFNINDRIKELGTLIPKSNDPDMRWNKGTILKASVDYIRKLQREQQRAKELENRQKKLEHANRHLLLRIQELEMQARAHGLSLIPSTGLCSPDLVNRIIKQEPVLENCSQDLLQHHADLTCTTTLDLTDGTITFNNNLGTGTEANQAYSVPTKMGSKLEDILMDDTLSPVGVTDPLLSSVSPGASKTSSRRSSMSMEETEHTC

[2] = biological target: T2, Heat shock factor protein 1 (Mus musculus, UniProt P38532); test: inhibition of MG132-induced HSE-luciferase signal, confirmation, cell-based, NIH3T3, luminescence, dose retest (AID 2382); type: functional;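 also: NIH3T3 fibroblasts with HSF1-driven luciferase reporter stressed by proteasome inhibitor MG132; luminescence from HSF1-driven luciferase expression after 8 hours of MG132 stress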
T2 sequence (P38532 whole entry): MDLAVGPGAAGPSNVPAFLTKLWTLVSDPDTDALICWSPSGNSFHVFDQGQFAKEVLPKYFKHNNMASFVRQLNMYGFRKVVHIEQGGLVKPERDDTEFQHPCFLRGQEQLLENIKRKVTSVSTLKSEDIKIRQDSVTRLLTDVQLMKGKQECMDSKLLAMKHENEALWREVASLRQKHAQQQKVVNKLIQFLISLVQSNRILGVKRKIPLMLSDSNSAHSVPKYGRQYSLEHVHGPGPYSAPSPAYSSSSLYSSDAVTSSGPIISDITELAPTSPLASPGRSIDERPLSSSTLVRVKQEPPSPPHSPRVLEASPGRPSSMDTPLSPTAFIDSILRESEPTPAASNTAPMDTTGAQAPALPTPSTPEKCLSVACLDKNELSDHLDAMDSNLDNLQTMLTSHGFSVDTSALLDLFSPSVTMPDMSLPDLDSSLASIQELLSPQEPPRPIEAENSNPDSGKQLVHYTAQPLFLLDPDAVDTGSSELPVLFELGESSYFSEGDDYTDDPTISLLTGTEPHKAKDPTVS

Cytochrome P450 2D6 = Cytochrome P450 2D6 (Homo sapiens, UniProt P10635);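 also: CYP2D6 member of a cytochrome P450 panel assay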
Cytochrome P450 2D6, sequence (P10635 whole entry): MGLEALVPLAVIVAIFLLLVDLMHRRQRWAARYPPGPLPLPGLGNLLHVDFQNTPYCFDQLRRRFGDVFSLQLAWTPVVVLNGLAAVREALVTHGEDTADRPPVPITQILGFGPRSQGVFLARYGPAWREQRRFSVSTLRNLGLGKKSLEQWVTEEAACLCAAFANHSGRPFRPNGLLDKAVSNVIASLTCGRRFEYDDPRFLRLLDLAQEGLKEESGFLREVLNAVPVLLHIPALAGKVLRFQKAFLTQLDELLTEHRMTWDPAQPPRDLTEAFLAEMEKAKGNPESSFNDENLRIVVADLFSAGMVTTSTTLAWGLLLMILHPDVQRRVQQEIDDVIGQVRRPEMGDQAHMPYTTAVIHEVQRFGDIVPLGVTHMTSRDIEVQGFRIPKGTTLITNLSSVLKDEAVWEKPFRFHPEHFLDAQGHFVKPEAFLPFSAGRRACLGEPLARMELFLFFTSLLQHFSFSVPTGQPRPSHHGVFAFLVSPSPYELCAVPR

Cytochrome P450 2C9 = Cytochrome P450 2C9 (Homo sapiens, UniProt P11712)
Cytochrome P450 2C9, sequence (P11712 whole entry): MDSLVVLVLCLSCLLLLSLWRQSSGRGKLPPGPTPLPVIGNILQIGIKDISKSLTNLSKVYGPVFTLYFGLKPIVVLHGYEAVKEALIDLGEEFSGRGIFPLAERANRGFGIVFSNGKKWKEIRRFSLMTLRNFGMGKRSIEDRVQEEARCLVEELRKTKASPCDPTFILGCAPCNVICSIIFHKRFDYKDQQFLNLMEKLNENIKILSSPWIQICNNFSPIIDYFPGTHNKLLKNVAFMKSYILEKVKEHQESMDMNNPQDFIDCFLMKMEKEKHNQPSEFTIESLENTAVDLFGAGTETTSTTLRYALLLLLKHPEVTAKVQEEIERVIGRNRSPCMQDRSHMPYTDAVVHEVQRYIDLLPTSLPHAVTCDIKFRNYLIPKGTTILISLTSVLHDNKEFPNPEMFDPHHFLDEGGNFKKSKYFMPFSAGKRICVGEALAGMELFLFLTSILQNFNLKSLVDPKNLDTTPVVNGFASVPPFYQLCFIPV

Cytochrome P450 2C19 = Cytochrome P450 2C19 (Homo sapiens, UniProt P33261); test: Cytochrome panel assay with activity outcomes. Panel member name: p450-cyp2c19 Compounds with AC50 equal or less than 10 uM are considered active; type: functional; settings: read-out: AC50
Cytochrome P450 2C19, sequence (P33261 whole entry): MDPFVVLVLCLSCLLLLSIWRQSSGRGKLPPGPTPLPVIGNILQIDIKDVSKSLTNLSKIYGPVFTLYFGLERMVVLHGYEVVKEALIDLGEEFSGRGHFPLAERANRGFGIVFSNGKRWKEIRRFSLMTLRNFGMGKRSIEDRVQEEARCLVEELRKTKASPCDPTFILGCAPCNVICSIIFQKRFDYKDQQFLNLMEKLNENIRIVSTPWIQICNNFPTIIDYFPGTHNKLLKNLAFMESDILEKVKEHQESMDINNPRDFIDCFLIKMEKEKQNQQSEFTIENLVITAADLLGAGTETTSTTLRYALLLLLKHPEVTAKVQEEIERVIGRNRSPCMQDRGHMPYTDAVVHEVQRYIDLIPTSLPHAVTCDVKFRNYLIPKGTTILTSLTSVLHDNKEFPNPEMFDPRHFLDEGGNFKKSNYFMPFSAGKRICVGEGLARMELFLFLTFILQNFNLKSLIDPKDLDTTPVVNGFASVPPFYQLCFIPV

[3] = biological target: T3, Replicative DNA helicase DnaB (Mycobacterium tuberculosis, UniProt P9WMR3); test: DnaB intein splicing inhibitors, dose response, biochemical, cell-free fluorescence (AID 449749); type: functional
T3 sequence (P9WMR3 whole entry): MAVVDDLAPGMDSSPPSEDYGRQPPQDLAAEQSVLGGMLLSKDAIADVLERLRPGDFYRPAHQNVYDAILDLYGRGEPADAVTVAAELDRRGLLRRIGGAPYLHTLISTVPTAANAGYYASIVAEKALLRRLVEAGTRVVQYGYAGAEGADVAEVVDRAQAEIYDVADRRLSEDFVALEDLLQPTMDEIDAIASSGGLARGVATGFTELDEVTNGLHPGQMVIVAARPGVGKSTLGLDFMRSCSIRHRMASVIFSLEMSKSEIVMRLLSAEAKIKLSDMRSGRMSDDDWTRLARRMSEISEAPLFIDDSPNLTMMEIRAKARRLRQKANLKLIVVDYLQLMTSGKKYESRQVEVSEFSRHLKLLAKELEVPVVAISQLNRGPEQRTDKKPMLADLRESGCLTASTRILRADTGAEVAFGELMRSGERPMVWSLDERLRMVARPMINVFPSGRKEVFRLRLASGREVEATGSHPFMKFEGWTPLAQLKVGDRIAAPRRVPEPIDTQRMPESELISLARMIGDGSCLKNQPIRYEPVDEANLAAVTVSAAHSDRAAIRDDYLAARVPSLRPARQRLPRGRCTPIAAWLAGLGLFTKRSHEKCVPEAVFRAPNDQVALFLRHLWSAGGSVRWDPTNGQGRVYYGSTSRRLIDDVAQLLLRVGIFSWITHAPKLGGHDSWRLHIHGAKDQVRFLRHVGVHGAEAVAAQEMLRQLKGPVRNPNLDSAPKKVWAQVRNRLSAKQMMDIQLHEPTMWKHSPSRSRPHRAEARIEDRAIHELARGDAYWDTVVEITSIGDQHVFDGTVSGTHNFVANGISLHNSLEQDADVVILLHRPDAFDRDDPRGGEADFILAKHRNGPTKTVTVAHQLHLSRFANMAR

Leucine aminopeptidase = biological target: T4, Leucine aminopeptidase (Plasmodium falciparum 3D7, UniProt Q8IL11); test: P. falciparum M17LAP inhibitors, primary screen, biochemical, fluorogenic H-Leu-NHMec substrate, 1536-well (AID 1619); type: functional
T4 sequence (Q8IL11 whole entry): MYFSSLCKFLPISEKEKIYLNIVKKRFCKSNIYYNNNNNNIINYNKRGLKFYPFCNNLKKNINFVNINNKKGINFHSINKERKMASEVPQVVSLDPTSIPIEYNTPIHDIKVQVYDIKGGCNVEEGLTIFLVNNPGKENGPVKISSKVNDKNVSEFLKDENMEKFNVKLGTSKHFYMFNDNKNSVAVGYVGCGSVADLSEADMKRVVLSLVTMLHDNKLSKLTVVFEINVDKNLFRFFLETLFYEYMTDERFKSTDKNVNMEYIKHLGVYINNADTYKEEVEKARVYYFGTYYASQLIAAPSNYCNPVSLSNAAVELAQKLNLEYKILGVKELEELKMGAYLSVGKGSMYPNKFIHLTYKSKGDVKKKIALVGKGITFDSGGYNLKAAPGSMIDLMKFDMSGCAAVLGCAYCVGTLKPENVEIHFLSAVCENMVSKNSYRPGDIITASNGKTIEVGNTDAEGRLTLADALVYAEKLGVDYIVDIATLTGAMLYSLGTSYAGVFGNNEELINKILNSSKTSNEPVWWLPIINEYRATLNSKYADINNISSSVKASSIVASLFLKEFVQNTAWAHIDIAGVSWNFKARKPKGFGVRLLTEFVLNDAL

Protein RecA = biological target: T5, Protein RecA (Mycobacterium tuberculosis, UniProt P9WHJ3); test: Fluorescence Cell-Free Homogeneous Dose Retest to Identify Inhibitors of RecA-Intein Splicing Activity. [Related pubchem assays (depositor defined):AID2097, AID2223, AID489010, AID492950]; type: functional
T5 sequence (P9WHJ3 whole entry): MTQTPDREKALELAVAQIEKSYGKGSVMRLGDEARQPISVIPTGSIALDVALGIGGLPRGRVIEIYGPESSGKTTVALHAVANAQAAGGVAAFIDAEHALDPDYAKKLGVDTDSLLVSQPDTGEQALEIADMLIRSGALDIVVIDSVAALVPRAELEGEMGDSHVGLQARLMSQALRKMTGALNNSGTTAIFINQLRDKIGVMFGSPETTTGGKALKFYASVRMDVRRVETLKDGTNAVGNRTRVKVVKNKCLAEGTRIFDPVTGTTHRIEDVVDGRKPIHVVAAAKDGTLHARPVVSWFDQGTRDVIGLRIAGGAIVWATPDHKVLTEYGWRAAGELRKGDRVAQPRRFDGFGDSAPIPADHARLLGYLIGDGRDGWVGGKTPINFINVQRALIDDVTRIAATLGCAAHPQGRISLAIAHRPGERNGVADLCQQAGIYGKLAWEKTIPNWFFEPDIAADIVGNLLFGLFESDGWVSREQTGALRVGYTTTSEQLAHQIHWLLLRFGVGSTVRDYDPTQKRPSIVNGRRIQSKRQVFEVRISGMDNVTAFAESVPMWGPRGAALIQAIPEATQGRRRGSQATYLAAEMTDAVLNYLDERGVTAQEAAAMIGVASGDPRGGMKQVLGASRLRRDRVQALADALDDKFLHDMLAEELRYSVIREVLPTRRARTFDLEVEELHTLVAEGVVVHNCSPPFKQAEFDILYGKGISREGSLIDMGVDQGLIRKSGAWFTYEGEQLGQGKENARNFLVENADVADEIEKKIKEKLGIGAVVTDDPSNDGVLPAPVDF

[4] = biological target: T6, Corticotropin-releasing factor receptor 2/Corticotropin-releasing factor-binding protein (Homo sapiens, UniProt P24387+Q13324); test: activators of CRF receptor 2 with binding protein – uHTS hits, confirmation (AID 602473); type: functional; settings: read-out: EC50_Mean
T6 sequence (Q13324 whole entry): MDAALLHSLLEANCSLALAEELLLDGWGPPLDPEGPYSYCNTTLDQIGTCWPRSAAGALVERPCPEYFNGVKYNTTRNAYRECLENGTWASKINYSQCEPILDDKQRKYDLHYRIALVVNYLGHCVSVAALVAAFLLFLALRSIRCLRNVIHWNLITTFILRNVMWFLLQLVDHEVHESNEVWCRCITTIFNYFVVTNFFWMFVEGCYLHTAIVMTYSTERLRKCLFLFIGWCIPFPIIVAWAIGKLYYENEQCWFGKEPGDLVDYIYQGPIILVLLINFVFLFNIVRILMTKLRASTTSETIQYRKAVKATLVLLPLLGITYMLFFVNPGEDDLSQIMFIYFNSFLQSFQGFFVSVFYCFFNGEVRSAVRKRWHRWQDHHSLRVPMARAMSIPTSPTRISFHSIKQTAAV
T6 sequence (P24387 whole entry): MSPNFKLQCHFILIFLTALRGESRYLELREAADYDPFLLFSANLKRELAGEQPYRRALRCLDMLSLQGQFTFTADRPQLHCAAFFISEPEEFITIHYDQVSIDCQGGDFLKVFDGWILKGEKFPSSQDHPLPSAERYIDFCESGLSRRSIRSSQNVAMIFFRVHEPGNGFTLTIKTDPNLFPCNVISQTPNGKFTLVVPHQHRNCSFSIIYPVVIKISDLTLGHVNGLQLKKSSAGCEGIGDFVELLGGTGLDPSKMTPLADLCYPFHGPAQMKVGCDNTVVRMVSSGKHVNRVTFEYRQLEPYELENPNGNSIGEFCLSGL

BJ [5] = test: cytotoxicity toward BJ-TERT-LT-ST fibroblasts, dose response, cell-based, RAS-independent, luminescence (AID 1935); type: functional; settings: Homo sapiens;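 also: BJ fibroblasts immortalized with TERT plus LT and ST oncogenes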
BJ [6] = test: cells; type: functional, cell-based; settings: Homo sapiens
[7] = cytotoxicity toward DRD oncogenic fibroblasts, dose response, cell-based, non-viral oncogenic, luminescence (AID 1934); type: functional; settings: Homo sapiens
BJ [8] = test: cytotoxicity toward BJ-TERT fibroblasts, dose response, cell-based, RAS-independent, luminescence (AID 1933); type: functional; settings: Homo sapiens

## Cc1cc(C(C)(C)C)cc(C)c1C[n+]1c2n(c3ccc(C(F)(F)F)cc31)CCCCC2
INS1
  AC50: 3.43 µM (active)
Paired box protein Pax-8
  AC50: 4.37 µM (active)
[1]
  AC50: 7.55 µM (active)

## CC1(C)Cc2c(sc(NC(=O)c3ccc4ncsc4c3)c2C(N)=O)C(C)(C)N1
[1]
  AC50: 10.1 µM (active)
[2]
  EC50: > 195 µM (not active)

## Cc1c(C)n(C)c2ccc(C(=O)Nc3cccc4ccccc34)cc12
Cytochrome P450 2D6
  AC50: 11.2 µM (inconclusive)
Cytochrome P450 2C9
  AC50: inconclusive

## CCOC(=O)C1=NOC(CNC(=O)C2=NOC(CNC(=O)c3c(-c4ccccc4Cl)noc3C)C2)C1 (stereo unspecified)
Cytochrome P450 2C19
  AC50: 20 µM (inconclusive)
Cytochrome P450 2C9
  AC50: inconclusive

## COc1ccc(CNC(=O)C2CC(c3cccc([N+](=O)[O-])c3)=NO2)cc1 (stereo unspecified)
Cytochrome P450 2C9
  AC50: inconclusive

## CCOc1ccc(-n2c(O)nnc2SCC(=O)Nc2ccccc2C)cc1
Cytochrome P450 2C9
  AC50: inconclusive

## CCc1cccc(NC(=O)CSCc2cc(O)[nH]n2)c1
[3]
  AC50: 3.37 µM (active)
Leucine aminopeptidase
  IC50: 25.9 µM (active)
Protein RecA
  EC50: 2.37 µM (active)

## C=CCSc1nc(NC)c2sccc2n1
Cytochrome P450 2C9
  AC50: inconclusive

## Cc1cc2c(C(F)(F)F)cc(=O)oc2c2c1NCCC2
Cytochrome P450 2C19
  AC50: 1.26 µM (inconclusive)
Cytochrome P450 2C9
  AC50: inconclusive
[4]
  EC50: 1.12 µM (active)

## COc1ccccc1CNC(=O)C1CCN(S(=O)(=O)N2CC(C)CC(C)C2)CC1 (stereo unspecified)
Cytochrome P450 2C19
  AC50: 39.8 µM (inconclusive)
Cytochrome P450 2C9
  AC50: inconclusive

## COc1cc2c(c(OC)c1OC)-c1ccc(OC)c(=O)cc1C(NC(C)=O)CC2 (stereo unspecified)
BJ [5]
  EC50: 0.249 µM (active)
Paired box protein Pax-8
  AC50: < 0.26 µM (active)
BJ [6]
  EC50: 0.627 µM (inconclusive)
[1]
  AC50: 0.056 µM (active)
[7]
  EC50: 0.351 µM (active)
BJ [8]
  EC50: 0.348 µM (active)
